Source: PubChem BioAssay AID463206 (Broad Institute, 2010)
The source made the active and inactive calls.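 The calls were made as follows: active = caspase luminescence falls with dose and the half-maximal concentration AC50 from the fitted curve is at or below a set limit; inconclusive = flat fit at 30 to 70% signal loss, or invalid fit; inactive = AC50 above the limit, or signal rises instead.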

Tested on: INS-1E cytokine-induced caspase-3/7, Caspase-Glo luminescence, 48 h
Assay: inhibitors of cytokine-induced caspase-3/7 activity, dose response, orthogonal assay for beta-cell apoptosis protection project, INS-1E rat cells, luminescence (AID 463206)

Structure (SMILES) | AC50
O=C(Nc1ccc(OC(F)F)c(Cl)c1)C(c1ccccc1)c1ccccc1 | > 26 µM (inactive)
CC(C)(C)Nc1nc(-c2ccccn2)nc2ccccc12 | > 26 µM (inactive)
CCN(CC)S(=O)(=O)c1ccc(Cl)c(C(=O)Nc2ccc(Cl)cc2[N+](=O)[O-])c1 | > 26 µM (inactive)
CCN(CC)CCCNC1=C(Cl)C(=O)c2ccccc2C1=O | > 26 µM (inactive)
COc1cnc(-c2ccccn2)nc1NC(C)C | > 12 µM (inactive)
CN(C)S(=O)(=O)c1cccc(CSCc2cccc(S(=O)(=O)N(C)C)c2)c1 | > 26 µM (inactive)
Cc1ccc2nc(-c3ccccn3)c(NC3CCCC3)n2c1 | > 12 µM (inactive)
O=C(NCCc1ccccc1)[C@@H]1CC=C[C@@H]2CCN(Cc3ccc(Cl)c(Cl)c3)C(=O)[C@@H]21 | > 12 µM (inactive)
Cn1nc(C(C)(C)C)cc1C(=O)NCc1ccc2c(c1)OCO2 | > 26 µM (inactive)
Cc1nn(S(=O)(=O)c2ccc(Cl)cc2)c(C)c1Sc1ccc([N+](=O)[O-])cc1 | > 26 µM (inactive)
O=C(N/N=C/c1ccccc1O)c1ccc2c(c1)OCO2 | > 26 µM (inactive)
C/C(=N\Nc1nc(-c2ccccn2)nc2ccccc12)c1ccc(F)cc1 | > 26 µM (inactive)
Nc1nc(Cl)cc(N2CCC(c3cc(-c4ccc(Cl)cc4)n[nH]3)CC2)n1 | > 26 µM (inactive)
COc1ccc(-c2nc(-c3ccccn3)no2)cc1 | > 26 µM (inactive)
NS(=O)(=O)c1ccc(N/N=C/c2cn(-c3ccccc3)nc2-c2cccs2)c([N+](=O)[O-])c1 | 19 µM
CC(C)C(=O)NC(=S)/C=C1/N(C)c2ccccc2C1(C)C | > 26 µM (inactive)
C=CCc1c(C)nc(C)nc1N/N=C/c1ccc(N(C)C)cc1 | > 26 µM (inactive)
C/C(=N\NC(=O)c1c(C)nc2ccccn12)c1ccc(O)cc1O | > 26 µM (inactive)
CCOC(=O)c1cnc(-n2nc(C)cc2C)nc1NC1CCCC1 | > 26 µM (inactive)
COc1ccc(-c2csc(NC(=O)c3ccccc3NS(=O)(=O)c3ccc(F)c(F)c3)n2)cc1 | > 26 µM (inactive)
C/C(N)=C(/C#N)C(=O)COC(=O)c1cc(-c2ccc(C)cc2)nc2ccccc12 | > 26 µM (inactive)
COc1ccc(C(NC(C)=O)c2cc(Cl)c3cccnc3c2O)cc1 (centres undefined) | > 26 µM (inactive)
Cc1ccc(NC(=O)NCC2CCN(Cc3cccc(Cl)c3)CC2)cc1Cl | > 26 µM (inactive)

Structure (SMILES) | AC50
COCCn1c(SCC(=O)/C=C2\N(C)c3ccccc3C2(C)C)nnc1-c1ccncc1 | > 26 µM (inactive)
C/C(=N\NC(=O)c1nnn(-c2nonc2N)c1CN1CCc2ccccc21)c1ccccc1O | > 26 µM (inactive)
O=C(Oc1c(CN2CCOCC2)cc(Cl)c2cccnc12)c1ccc(F)cc1 | > 26 µM (inactive)
C/C(=N\NC(=O)C(=O)Nc1cccc(Cl)c1)c1ccncc1 | > 26 µM (inactive)
Oc1ccccc1/C=N/Nc1ncc(Br)cn1 | > 26 µM (inactive)
CC(=O)Nc1sc2c(c1-c1nc3ccccc3s1)CCN(C(C)C)C2 | 3.1 µM
C=C1C(=O)O[C@@H]2C[C@@H](C)[C@@H]3C=CC(=O)[C@@]3(C)[C@@H](OC(C)=O)[C@H]12 | > 26 µM (inactive)
CCOc1cc(-c2sc(Nc3cc(C)ccc3OC)n[n+]2-c2ccccc2)ccc1OC | > 26 µM (inactive)
CCCC(=O)NC(c1ccc(Cl)cc1Cl)c1ccc2cccnc2c1O (centres undefined) | > 12 µM (inactive)
CCOC(=O)c1c(C)[nH]c(C(=O)N/N=C\c2ccccc2O)c1C | > 26 µM (inactive)
COC(=O)c1sc(-c2ccc(C(C)(C)C)cc2)cc1NC(=O)/C=C/C(=O)O | > 26 µM (inactive)
OC(c1cc(-c2ccc(C(F)(F)F)cc2)nc(C(F)(F)F)c1)C1CCCCN1 (centres undefined) | > 26 µM (inactive)
COc1ccc(Cn2c(SCc3ccccc3C)nc3cc(OC)c(OC)cc3c2=N)cc1 | > 26 µM (inactive)
O=C1/C(=C/c2cccnc2)CCC/C1=C\c1cccnc1 | > 26 µM (inactive)
S=C(c1cn(CCOc2cccc3ccccc23)c2ccccc12)N1CCCC1 | > 26 µM (inactive)
Cc1ccc2nc(NC(=O)/C=C/c3ccc4c(c3)OCO4)sc2c1 | > 26 µM (inactive)
CCCC[C@@H](CN[C@H](C)CNC)NCC1CCC(C(C)(C)C)CC1 (some centres undefined) | 25.6 µM
O=C(NCc1cccnc1)c1ccc([N+](=O)[O-])cc1 | > 26 µM (inactive)
COc1ccc(NS(=O)(=O)c2ccc(N3CCOCC3)c(N)c2)cc1 | > 26 µM (inactive)
CC(C)(C)CN1CCC(Oc2cccc(C(=O)NCCCOc3cccnc3)c2)CC1 | > 26 µM (inactive)
C/C(=N/NC(=O)CN(c1ccccc1)S(=O)(=O)c1ccccc1)c1ccccc1O | > 26 µM (inactive)
Oc1ccc(CCNc2ncnc3ccc(Cl)cc23)cc1 | > 26 µM (inactive)
O=C(/C=C/c1cccc([N+](=O)[O-])c1)c1ccc([N+](=O)[O-])o1 | > 26 µM (inactive)

Structure (SMILES) | AC50
O=C(Cn1c(-c2ccccc2)c[n+]2ccsc12)c1ccc([N+](=O)[O-])cc1 | > 26 µM (inactive)
Cc1ccc([N+](=O)[O-])c(OCCN2CCCCCC2)c1 | > 26 µM (inactive)
Oc1ccc(Nc2nc(N3CCCC3)c3ccccc3n2)cc1 | 8.57 µM
CCOC(=O)N1CCN(C(=O)CSCC(=O)Nc2nc(-c3ccc(-c4ccccc4)cc3)cs2)CC1 | > 26 µM (inactive)
CCCCC(=O)NC(c1ccc(Cl)cc1)c1ccc2cccnc2c1O (centres undefined) | > 12 µM (inactive)
O=C(Nc1cccc(C(F)(F)F)c1)Oc1ccc(Cl)c2cccnc12 | > 26 µM (inactive)
Cc1ccc(C(C)C)c(OCc2ccc(C(=O)N/N=C/c3ccc(O)cc3O)cc2)c1 | > 26 µM (inactive)
COc1ccc(C2=Nn3c(nnc3-c3ccccc3Cl)SC2)cc1OC1CCCC1 | > 26 µM (inactive)
Cc1[nH]c2ccccc2c1CN1CCC(Cc2ccccc2)CC1 | > 26 µM (inactive)
Cc1ccc2nc(NC(=O)c3ccccn3)sc2c1 | > 26 µM (inactive)
Cc1ccc(NC(=O)Nc2cccc([N+](=O)[O-])c2)cc1F | > 26 µM (inactive)
Cc1nnc(N=c2ssnc2Cl)o1 | > 26 µM (inactive)
COc1cc(OC)c2cc(C(=O)N/N=C/c3cccc(OC)c3O)[nH]c2c1 | > 26 µM (inactive)
CCCCC1CCC(C(=O)N(CC(C)C)c2c(N)n(Cc3ccccc3)c(=O)[nH]c2=O)CC1 (centres undefined) | > 26 µM (inactive)
C=CCc1cccc(/C=N/NC(=O)c2ccccc2OC)c1O | > 26 µM (inactive)
CC1CCC(C(C)C)C(OC(=O)Cn2c(-c3ccc(Br)cc3)[n+](C)c3ccccc32)C1 (centres undefined) | > 26 µM (inactive)
CC(C)c1ccccc1-n1c(SCC(=O)N2CCc3ccccc3C2)nc2ccccc2c1=O | > 26 µM (inactive)
COc1ccc(-c2nc3ccc(C)cn3c2NCc2ccccc2)cc1SC1CCCCC1 | > 26 µM (inactive)
CCC(C)Sc1cccc(-c2nc3ccc(C)cn3c2NCc2ccccc2)c1 (centres undefined) | > 26 µM (inactive)
CCN(CC)c1ccc(/C=N/NC(=O)c2ccc3nc[nH]c3c2)c(O)c1 | > 26 µM (inactive)
CCn1c(C)c(C)c2cc(C(=O)N3CCc4ccccc4C3)ccc21 | > 26 µM (inactive)
CCc1ccc(OC)c(S(=O)(=O)Nc2ccc(Cc3ccncc3)cc2)c1 | > 26 µM (inactive)
O=C(N/N=C/c1cc([N+](=O)[O-])ccc1O)c1cccc2cc[nH]c12 | > 26 µM (inactive)
